Columns and labels:
Assay type in all cases: in vivo
SD male albino rats [1] = assay: Carrageenan-induced hind paw edema, Example 4 administered for 2 weeks (Experimental Example 5); conditions: dose 5 mg/kg, 2-week test
Protocol: SD male albino rats weighing 150 to 170 g, which were fasted for 16 hours before experimental use, were used as test animals to induce edema by subcutaneously injecting 0.1 ml of a 1% type IV lambda carrageenan-saline solution as a […] to the subplantar of the right hind paw of each of the albino rats (Winter et al., 1962). The paw volume was measured with a plethysmometer (Ugo Basile, Italy) 0.5, 1, 2, 4 and 6 hours after injection of carrageenan and compared with the paw volume measured before injection of carrageenan for calculation of an increase (%) of paw volume. In addition, an increase (%) of paw volume for a control group was compared with increases (%) of paw volume for treatment groups for obtaining a reduction ratio (%) of paw volume. The pharmaceutical compositions prepared in Examples 1 through 4 were orally administered to the […] 30 minutes before injection of carrageenan. The extent of paw edema (or swelling) was obtained based on the edema enhancement rate and edema inhibition rate measured using the following relationship. […] Phenylbutazone was used as a positive control. In order to examine the inhibitory effect of the pharmaceutical composition prepared in Example 4 of the present invention on acute inflammation induced by carrageenan, […] Experimental Example 1 and the results are summarized in Table 4. […]

SD male albino rats [2] = assay: as above; conditions: dose 5 mg/kg; 2-week test; 2 h after carrageenan
SD male albino rats [3] = assay: Carrageenan-induced hind paw edema, Example 4 at 30-600 mg/kg (Experimental Example 4)
Protocol: SD male albino rats weighing 150 to 170 g, which were fasted for 16 hours before experimental use, were used as test animals to induce edema by subcutaneously injecting 0.1 ml of a 1% type IV lambda carrageenan-saline solution as a […] to the subplantar of the right hind paw of each of the albino rats (Winter et al., 1962). The paw volume was measured with a plethysmometer (Ugo Basile, Italy) 0.5, 1, 2, 4 and 6 hours after injection of carrageenan and compared with the paw volume measured before injection of carrageenan for calculation of an increase (%) of paw volume. In addition, an increase (%) of paw volume for a control group was compared with increases (%) of paw volume for treatment groups for obtaining a reduction ratio (%) of paw volume. The pharmaceutical compositions prepared in Examples 1 through 4 were orally administered to the […] 30 minutes before injection of carrageenan. The extent of paw edema (or swelling) was obtained based on the edema enhancement rate and edema inhibition rate measured using the following relationship. […] Phenylbutazone was used as a positive control. In order to examine the inhibitory effect of the pharmaceutical composition prepared in Example 4 of the present invention on acute inflammation induced by carrageenan, […] Experimental Example 1 and the results are summarized in Table 4.

SD male albino rats [4] = assay: Acute inflammation test by carrageenan-induced hind paw edema, composition given 30 minutes before carrageenan (Experimental Example 1); conditions: dose 50 mg/kg oral
Protocol: (§1) SD male albino rats weighing 150 to 170 g, which were fasted for 16 hours before experimental use, were used as test animals to induce edema by subcutaneously injecting 0.1 ml of a 1% type IV lambda carrageenan-saline solution as a […] to the subplantar of the right hind paw of each of the albino rats (Winter et al., 1962). The paw volume was measured with a plethysmometer (Ugo Basile, Italy) 0.5, 1, 2, 4 and 6 hours after injection of carrageenan and compared with the paw volume measured before injection of carrageenan for calculation of an increase (%) of paw volume. In addition, an increase (%) of paw volume for a control group was compared with increases (%) of paw volume for treatment groups for obtaining a reduction ratio (%) of paw volume. […] The extent of paw edema (or swelling) was obtained based on the edema enhancement rate and edema inhibition rate measured using the following relationship.

ICR male mice = assay: Analgesic effect test, acetic acid-induced writhing (Experimental Example 3); conditions: dose 50 mg/kg oral
Protocol: The pharmaceutical compositions prepared in Examples 1 through 4 were orally administered to ICR (Institute of Cancer Research) male mice weighing 25 to 28 g, which were fasted for 12 hours before experimental use. After 30 minutes of administration, 0.7% acetic acid-saline solution was intraperitoneally injected to the mice in a dose of […] per 10 g of body weight and from 5 minutes after administration, the number of writhings occurring to each mouse was counted for 10 minutes (Koster et al., 1959) and the results are summarized in Table 3. Phenylbutazone was used as a positive control.

SD male albino rats [5] = assay: Acute inflammation test by carrageenan-induced hind paw edema after 2 weeks of administration (Experimental Example 2); conditions: dose 50 mg/kg, 2-week test
Protocol: as §1

SMILES | Increased percent of paw volume (%) (SD male albino rats [1]; 0.5 h after carrageenan) | reduction ratio (%) of paw volume vs control (SD male albino rats [1]; 0.5 h after carrageenan) | Increased percent of paw volume (%) (SD male albino rats [1]; 1 h after carrageenan) | reduction ratio (%) of paw volume vs control (SD male albino rats [1]; 1 h after carrageenan) | reduction ratio (%) of paw volume vs control (SD male albino rats [1]; 2 h after carrageenan) | Increased percent of paw volume (%) (SD male albino rats [1]; 4 h after carrageenan) | reduction ratio (%) of paw volume vs control (SD male albino rats [1]; 4 h after carrageenan) | Increased percent of paw volume (%) (SD male albino rats [1]; 6 h after carrageenan) | reduction ratio (%) of paw volume vs control (SD male albino rats [1]; 6 h after carrageenan) | Increased percent of paw volume (%) (SD male albino rats [2]) | Increased percent of paw volume (%) (SD male albino rats [3]; 0.5 h after carrageenan) | reduction ratio (%) of paw volume vs control (SD male albino rats [3]; 0.5 h after carrageenan) | Increased percent of paw volume (%) (SD male albino rats [3]; 1 h after carrageenan) | reduction ratio (%) of paw volume vs control (SD male albino rats [3]; 1 h after carrageenan) | Increased percent of paw volume (%) (SD male albino rats [3]; 2 h after carrageenan) | reduction ratio (%) of paw volume vs control (SD male albino rats [3]; 2 h after carrageenan) | Increased percent of paw volume (%) (SD male albino rats [3]; 4 h after carrageenan) | reduction ratio (%) of paw volume vs control (SD male albino rats [3]; 4 h after carrageenan) | Increased percent of paw volume (%) (SD male albino rats [3]; 6 h after carrageenan) | reduction ratio (%) of paw volume vs control (SD male albino rats [3]; 6 h after carrageenan) | other results
O=C(O)Cc1ccccc1Nc1c(Cl)cccc1Cl [Diclofenac, diclofenac] | 12.0 ± 1.8 % | 55.5% | 13.7 ± 1.4 % | 55.6% | 54.4% | 49.2 ± 3.9 % | 37.1% | 51.8 ± 4.0 % | 31.50% | 22.0 ± 2.0 % | 9.6 ± 1.6 % | 47.5% | 13.6 ± 2.6 % | 48.0% | 17.7 ± 3.1 % | 56.3% | 37.24 ± 5.9 % | 55.7% | 34.89 ± 2.8 % | 52.8% | –
O=C(O)COC(=O)Cc1ccccc1Nc1c(Cl)cccc1Cl [Aceclofenac, aceclofenac] | 10.1 ± 1.4 % | 62.6% | 15.1 ± 1.7 % | 51.4% | 59.2% | 55.3 ± 3.9 % | 29.4% | 61.0 ± 3.5% | 19.4% | 19.7 ± 2.0 % | 12.1 ± 2.6% | 34.8% | 12.1 ± 3.5 % | 53.7% | 16.7 ± 3.0 % | 58.7% | 36.9 ± 5.1 % | 56.1% | 50.6 ± 3.9 % | 31.5% | –
CCCCC1C(=O)N(c2ccccc2)N(c2ccccc2)C1=O [Phenylbutazone, phenylbutazone] | – | – | – | – | – | – | – | – | – | – | – | – | – | – | – | – | – | – | – | – | Increased percent of paw volume (%) (SD male albino rats [4]; 1 h after carrageenan): 14.0 ± 0.9 %; Increased percent of paw volume (%) (SD male albino rats [4]; 2 h after carrageenan): 25.0 ± 3.7 %; Increased percent of paw volume (%) (SD male albino rats [4]; 4 h after carrageenan): 37.8 ± 4.3%; Increased percent of paw volume (%) (SD male albino rats [4]; 6 h after carrageenan): 35.0 ± 2.4 %; Number of writhing (ICR male mice; counted for 10 minutes): 12.3 ± 0.9; Inhibition rate (%) (ICR male mice; writhing): 50.1%; Increased percent of paw volume (%) (SD male albino rats [5]; 1 h after carrageenan): 13.2 ± 0.8 %; Increased percent of paw volume (%) (SD male albino rats [5]; 2 h after carrageenan): 19.3 ± 2.4 %; Increased percent of paw volume (%) (SD male albino rats [5]; 4 h after carrageenan): 39.1 ± 5.0 %; Increased percent of paw volume (%) (SD male albino rats [5]; 6 h after carrageenan): 35.0 ± 2.4 %
